Assay: GHS categories as the set defines them, by LD50: 1 up to 5, 2 up to 50, 3 up to 300, 4 up to 2000, 5 above 2000 mg/kg
Conditions: rat; in vivo; po

Going from `O=C1C=CC=CC1=CNc1ccccc1C(=O)O` to `N#Cc1ccc(NC(=O)Oc2ccccc2)cc1`, the GHS category rises from 4 to 5.

`Cc1cc(CCC(=O)OCCOCCOCCOC(=O)CCc2cc(C)c(O)c(C(C)(C)C)c2)cc(C(C)(C)C)c1O` and `CCCCCCCCCCCCCCCCCCOC(=O)CCc1cc(C(C)(C)C)c(O)c(C(C)(C)C)c1` are the same in GHS category: 5 for the first, 5 for the second.

`CC1(C)C[C@@H]1C(=O)N/C(=C\CCCCSC[C@H](N)C(=O)O)C(=O)O` and `CCC(CO)(CO)C(=O)O` are the same in GHS category: 5 for the first, 5 for the second.

`CC(=O)Nc1ccc(OC(=O)c2cccs2)cc1` and `COC(=O)c1ccc(OC)cc1` are the same in GHS category: 5 for the first, 5 for the second.

`O=[N+]([O-])c1cc(C(F)(F)F)c(Cl)c([N+](=O)[O-])c1Nc1ncc(C(F)(F)F)cc1Cl` and `Nc1ccc(F)cc1-c1ccc(Cl)c(Cl)c1` are the same in GHS category: 5 for the first, 5 for the second.

`CCC(=O)C=Cc1ccc(OC)cc1` and `COC(=O)C(C)(C)c1ccc(Br)cc1` are the same in GHS category: 5 for the first, 5 for the second.

Going from `O=[N+]([O-])c1ccc2c(c1)COP(=S)(NC1CCCCC1)O2` (stereo unspecified) to `C[C@@H]1[C@@H](c2ccc(Cl)cc2)SC(=O)N1C(=O)NC1CCCCC1` (single isomer, unassigned), the GHS category rises from 3 to 5.

Going from `O=C(C(Cl)Cl)N(CCO)Cc1ccc(Oc2ccc([N+](=O)[O-])cc2)cc1` to `CCCCCCCC(=O)Nc1ccc(Cc2ccccn2)c([N+](=O)[O-])c1`, the GHS category falls from 5 to 3.

`COc1cc2nc(N3CCCC(N(C)Cc4ccc5c(c4)OCO5)C3)nc(N)c2cc1OC` (stereo unspecified) and `CCC(C)(CC)c1ccc(NC(=O)c2c(OC)cccc2OC)nn1` are the same in GHS category: 4 for the first, 4 for the second.

First: C#CCN1C(=O)CCc2c(OCCCN3CCC(Cc4ccccc4)CC3)cccc21
Second: O=C(Cc1ccccc1)C1C(=O)CC(c2ccccc2)CC1=O (stereo unspecified)
The GHS category of the first is lower: 4 for the first, 5 for the second.

Compared with `CC(=O)CSc1nnnn1C`, `CCN1CCN(C(=O)N[C@@H](C(=O)N[C@]2(OC)C(=O)N3C(C(=O)O)=C(CSc4nnnn4C)CS[C@@H]32)[C@H](C)O)C(=O)C1=O` is higher in GHS category: 4 for the first, 5 for the second.

First: O=c1[nH]c(CCl)nc2sc3c(c12)CCCC3
Second: Cc1cccn2c(=O)c(C(=O)NC3CCCC3)cnc12
The GHS category of the first is higher: 5 for the first, 3 for the second.

Compared with `COc1ccc2c(c1)CCN(c1ccccc1)C2c1ccccc1OC` (stereo unspecified), `CC(C)(CCn1c(=O)[nH]c2ccccc21)NCC(O)COc1cccc2ccccc12` (stereo unspecified) is higher in GHS category: 4 for the first, 5 for the second.

`CC(C)CCCCCCCCCCCCCCC(=O)OC(C)C` and `COC(=O)CCCCCCCCCC[Si](C)(C)Cl` are the same in GHS category: 5 for the first, 5 for the second.

`CNC(=O)Oc1cccc2c1OC1(CCCCC1)O2` and `CCC1(C)Oc2cccc(OC(=O)N(C)C(C)=O)c2O1` (stereo unspecified) are the same in GHS category: 3 for the first, 3 for the second.

First: C=CC(C)(CCC=C(C)C)OC(C)OCC (stereo unspecified)
Second: CC(=O)OCCOC(C)C
The GHS category of the first is higher: 5 for the first, 4 for the second.

`OC1c2ccccc2CCc2ccncc21` (stereo unspecified) and `O=C1c2ccccc2CN2C(=O)c3ccccc3CN12` are the same in GHS category: 5 for the first, 5 for the second.

`CCOc1nc(F)cc2nc(S(=O)(=O)Nc3c(Cl)cccc3C(=O)OC)nn12` and `COC(=O)C1=C(C)NC(C)=C(C(=O)OC(C)C)C1c1cccc2nonc12` (stereo unspecified) are the same in GHS category: 5 for the first, 5 for the second.

`CN1C(=O)C(C)(C)Oc2cc(C(=O)c3ccccc3)ccc21` and `CCS(=O)(=O)CCC(=O)NNC(=O)N1Cc2ccccc2Oc2ccc(Cl)cc21` are the same in GHS category: 5 for the first, 5 for the second.

`COc1ccc(C[C@](C)(NC(N)=O)C(=O)O)cc1OC` and `CCOC(=O)c1ccccc1OC(N)=O` are the same in GHS category: 5 for the first, 5 for the second.

`O=S(=O)(O)CCO` and `COC(=O)CCC(=O)OC` are the same in GHS category: 5 for the first, 5 for the second.

`CCCc1nc2ccnn2c(CCC)c1Cc1ccc(-c2ccccc2-c2nn[nH]n2)cc1` and `CCCCc1c(Cc2ccc(-c3ccccc3-c3nn[nH]n3)cc2)c(=O)nc2nc[nH]n12` are the same in GHS category: 4 for the first, 4 for the second.

`CCC(=O)O[C@@H]1C=C2CCC3C(CCC4(C)C3CC[C@@H]4OC(=O)CC)C2CC1` (stereo partly specified) and `CC(=O)OCC(=O)[C@@]1(O)CC[C@H]2[C@@H]3C[C@H](C)C4=CC(=O)C=C[C@]4(C)[C@H]3[C@@H](O)C[C@@]21C` are the same in GHS category: 5 for the first, 5 for the second.

`CC(C)(C)c1cc(Cn2c(=O)n(Cc3cc(C(C)(C)C)c(O)c(C(C)(C)C)c3)c(=O)n(Cc3cc(C(C)(C)C)c(O)c(C(C)(C)C)c3)c2=O)cc(C(C)(C)C)c1O` and `CC(C)(C)c1ccc(OP(Oc2ccc(C(C)(C)C)cc2C(C)(C)C)Oc2ccc(C(C)(C)C)cc2C(C)(C)C)c(C(C)(C)C)c1` are the same in GHS category: 5 for the first, 5 for the second.

`Nc1ncnc2c1ncn2[C@@H]1O[C@H](CO)[C@@H](O)[C@@H]1O` and `CCOC[C@@H]1[C@@H](O)[C@H](O[C@H]2[C@H](O)[C@@H](OCC)[C@H](O)O[C@@H]2CO)O[C@H](COCC)[C@H]1O` are the same in GHS category: 5 for the first, 5 for the second.

`CC(CC(=O)OCCN1C(C)(C)CC(OC(=O)CC(C)CC(C)(C)C)CC1(C)C)CC(C)(C)C` (stereo unspecified) and `C/C(=C(\CCOC(=O)C(C)C)SS/C(CCOC(=O)C(C)C)=C(/C)N(C=O)Cc1cnc(C)nc1N)N(C=O)Cc1cnc(C)nc1N` are the same in GHS category: 5 for the first, 5 for the second.

`CCCCOC(=O)C1C(C(=O)OCCCC)C2(Cl)C(Cl)=C(Cl)C1(Cl)C2(Cl)Cl` (stereo unspecified) and `CCCCCCCCCCCCCC` are the same in GHS category: 5 for the first, 5 for the second.

First: CNC(=C[N+](=O)[O-])NCCSCc1ccc(CN(C)C)o1
Second: CN(C)Cn1c(=O)oc2ccc(Cl)cc21
The GHS category of the first is higher: 5 for the first, 4 for the second.

Going from `CO[Si](OC)(C1CCCC1)C1CCCC1` to `CN1c2c(oc(=NC3CCCCC3)n(C3CCCCC3)c2=O)-c2sc(Cl)cc2S1(=O)=O`, the GHS category falls from 5 to 2.

`C=C(C)C1CCC(C)=C1CC(C)(C)COC(=O)CC` (stereo unspecified) and `CC(=O)OCC(=O)[C@@]1(OC(C)=O)[C@@H](C)C[C@H]2[C@@H]3C[C@H](F)C4=CC(=O)C=C[C@]4(C)[C@@]3(F)[C@@H](O)C[C@@]21C` are the same in GHS category: 5 for the first, 5 for the second.

`Nc1ccc2cc(S(=O)(=O)O)c(/N=N/c3ccc(-c4ccc(/N=N/c5ccc(O)c(C(=O)O)c5)cc4)cc3)c(O)c2c1` and `O=S(=O)(O)c1ccccc1Nc1ccc(C(=C2C=CC(=Nc3ccccc3)C=C2)c2ccc(Nc3ccccc3)cc2)cc1` are the same in GHS category: 5 for the first, 5 for the second.

`CCOP(=O)(CC(=O)Nc1cc2c(Nc3ccc(F)c(Cl)c3)ncnc2cc1O[C@H]1CCOC1)OCC` and `COc1cc(NS(=O)(=O)c2ccc(N)cc2)ncn1` are the same in GHS category: 5 for the first, 5 for the second.

Compared with `Cn1c(CCCC(=O)O)nc2cc(N(CCCl)CCCl)ccc21`, `CN1CCN(CC(=O)N(C)c2ccc(N)cc2)CC1` is higher in GHS category: 3 for the first, 5 for the second.

`CCCCC/C=C\C/C=C\CCCCCCCC(=O)NC(C)c1ccccc1` (stereo unspecified) and `COc1ccccc1OCCNCC(O)c1ccc(C)c(S(N)(=O)=O)c1` (stereo unspecified) are the same in GHS category: 5 for the first, 5 for the second.

`Oc1c(I)cc(Cl)c2cccnc12` and `O=P(O)(O)c1ccccc1` are the same in GHS category: 5 for the first, 5 for the second.

`C[C@]1(Cn2ccnn2)[C@H](C(=O)O)N2C(=O)C[C@H]2S1(=O)=O` and `CCC1Nc2cc(Cl)c(S(N)(=O)=O)cc2S(=O)(=O)N1` (stereo unspecified) are the same in GHS category: 5 for the first, 5 for the second.

`CC1(C)O[C@@H]2C[C@H]3[C@@H]4C[C@H](F)C5=CC(=O)C=C[C@]5(C)[C@@]4(F)[C@@H](O)C[C@]3(C)[C@]2(C(=O)CO)O1` and `CC(=O)O[C@@H]1C(=O)O[C@@H]2[C@H]1OC(=O)[C@@H]2OC(C)=O` are the same in GHS category: 5 for the first, 5 for the second.

`O=C1Nc2ccccc2OC1(c1ccc(O)cc1)c1ccc(O)cc1` and `CN1C(=O)CCC1=O` are the same in GHS category: 5 for the first, 5 for the second.
